{"source": "patent US10066190B2", "about": "“Mild liquid detergent formulations” (Henkel IP & Holding GmbH, priority 2016, dated 2018)", "tested_on": "human stratum corneum", "test": "Corneosurfametry test", "excerpt": "Another method to measure the skin irritancy potential is corneosurfametry (CSM) test, a noninvasive quantitative test that measures the interaction between surfactants and human stratum corneum. ([…] et al., Dermatology 189: 152-156 (1994)). Corneosurfametry involves removing a few layers of skin using cyanoacrylate skin surface strippings, short contact time with surfactants followed by staining the samples with fuchian dyes. A […] barrier allows greater penetration of the stain, therefore giving a more intense color, which is measured using colorimetrically with L*a*b* color space. This method is predictive of both protein and lipid damage in the skin. CIM (Color Indicator of Mildness) values are obtained from a corneosurfametry test. In a comparative study, the higher the CIM value, the milder the surfactant formulation. The test surfactant solution can be a solution with 3% active surfactant, or a 10% dilution of a surfactant formulation/product which has a total surfactant concentration of about 10%-25%. Corneosurfametry involves removing a few layers of human skin from the volar forearm of healthy adults using skin surface strippings. The skin was collected with D-Squame tapes (for tests with neutral pH formulas) and with Book tape (for tests with high pH formulas). […] Once the tapes are dry, they were analyzed with spectrophotometer. […]", "data": [{"smiles": "CCCCCCCCCCCCOS(=O)(=O)[O-].[Na+]", "note": "[1% SDS, SDS]", "values": [{"measurement": "CIM", "result": 36.84}]}]}
